Laboratory results as given in US20240261292A1, “COMBINATION THERAPIES” (Janssen Pharmaceutica NV, priority 2021, published 2024).
Structures can show the parent of a compound that is named as a salt.

Experiments:
[1] = Metabolic stability in human liver microsomes; format: in vitro ADME; settings: pH 7.4, 0.5 mg/mL microsomes protein, read-out: Human LM Clint
Experimental: (§1) 4) Metabolic Stability in Human/Mouse Liver Microsomes
(§2) The objective of this study is to measure in vitro metabolic stability of test compound(s) in human and mouse liver microsomes and provide quantitative information on the rate of metabolic turnover (i.e., determination of the apparent intrinsic clearance of test).
(§3) Test items were prepared at a stock concentration of 10 mM in DMSO. For determination of metabolic turnover, a final working solution was prepared by adding 2 μL of 10 mM DMSO stock solution for test compound or positive control compounds to 198 μL of acetonitrile (100 μM final concentration).
Incubations were performed as follows: First, liver microsomes were thawed on ice and a master solution containing liver microsomes in 100 mM PBS (phosphate-buffered saline) at pH 7.4 is prepared. Next, the liver microsomes solution was added to the incubation plates and 10 mM NADPH (Nicotinamide-adenine dinucleotide phosphate) was added (MW: 833.4 g/mol; Roche Diagnostics GmbH1, Germany. Dissolved in phosphate buffer (100 mmol/L, pH 7.4)). […]
(§4) All calculations were carried out using Microsoft Excel. The slope value, k, was determined by linear regression of the natural logarithm of the remaining percentage of the parent drug vs. incubation time curve.
(§5) The in vitro half-life (in vitro t1/2) was determined from the slope value: […]

hERG = hERG (Homo sapiens (Human), UniProt Q12809); experiment: hERG current in hERG-transfected HEK293 cells (Protocol 2, SyncroPatch 384PE); format: cell-based; settings: Protocol 2, HEK293 cells
Experimental: The compound, vehicle control and positive control were tested on hERG-transfected HEK293 cells. A human embryonic kidney cell line (HEK293) with a stable transfection of hERG (Zhou Z et al. Biophysical Journal 1998. 74, 230-241; McDonald T. V. et al, Nature 1997. 388, 289-292) was used (University of Wisconsin, Madison, USA). The cells were kept in culture in MEM (Minimum Essential Medium, Gibco) which was supplemented with (amounts indicated added to 500 ml MEM): 5 ml L-Glutamine-Penicillin-Streptomycin (Sigma), 50 ml Fetal Bovine serum (Bio-Whittaker), 5 ml Non-essential Amino Acids 100× (Gibco), 5 mil sodium pyruvate 100 mM (Gibco) and 4 ml geneticin 50 mg/ml (Gibco) using T175 flasks.
Cells were harvested as described below using Accumax™ (Sigma) as the dissociating reagent. Cells were then resuspended in a mixture of 33% DMEM/F12 (Dulbecco's Modified Eagle Medium/Nutrient Mixture F-12—Sigma) media/67% extracellular physiological solution. […]
The whole cell patch clamp technique on transfected cells allows the study of ion-channels with no—or limited interference from other ion-channels. […] All cells were recorded in the whole cell mode of the patch clamp technique. […]
After the whole cell mode was achieved, test pulses were given for ˜10 minutes to quantify the hERG current in control conditions. […]

MOLM-14 cells = experiment: Proliferation assay (spheroid), MOLM-14; format: cell-based; settings: Homo sapiens, 8 days, read-out: spheroid assay_OneTime MOLM-14 IC50
[2] = Metabolic stability in mouse liver microsomes; format: in vitro ADME; settings: pH 7.4, 0.5 mg/mL microsomes protein, read-out: Mouse LM Clint
Experimental: as §1, §2, §3
Incubations were performed as follows: First, liver microsomes were thawed on ice and a master solution containing liver microsomes in 100 mM PBS (phosphate-buffered saline) at pH 7.4 is prepared. Next, the liver microsomes solution was added to the incubation plates and 10 mM NADPH (Nicotinamide-adenine dinucleotide phosphate) was added (MW: 833.4 g/mol; Roche Diagnostics GmbH1, Germany. Dissolved in phosphate buffer (100 mmol/L, pH 7.4)). The mixture was mixed for 10 seconds and pre-warmed in the incubation plate at 37° C. for 10 minutes. The metabolic reaction was initiated with the addition of 5 μL of the 100 μM working solution for test compound or positive control compounds to incubation plate (final test item concentration=1 μM). The reaction final mixture should contain 1 mM NADPH, 0.5 mg/mL microsomes protein and 1 μM test compound or positive control compound in 100 mM PBS at pH 7.4. The percentage of organic solvent in incubation mixture is 1% with DMSO 0.02%.
The reaction was quenched by transferring 50 μL of the incubated mixture at selected time points into the quenching plate containing 200 μL of cold methanol. […]
as §4, §5

OCI-AML3 tumors = experiment: Efficacy study in disseminated OCI-AML3 model; format: in vivo, SCID beige mice
Experimental: Day 0 is the day of tumor cell implantation and study initiation.
Median survival was determined utilizing Kaplan-Meier survival analysis.

Chain of hERG (Q12809 whole entry): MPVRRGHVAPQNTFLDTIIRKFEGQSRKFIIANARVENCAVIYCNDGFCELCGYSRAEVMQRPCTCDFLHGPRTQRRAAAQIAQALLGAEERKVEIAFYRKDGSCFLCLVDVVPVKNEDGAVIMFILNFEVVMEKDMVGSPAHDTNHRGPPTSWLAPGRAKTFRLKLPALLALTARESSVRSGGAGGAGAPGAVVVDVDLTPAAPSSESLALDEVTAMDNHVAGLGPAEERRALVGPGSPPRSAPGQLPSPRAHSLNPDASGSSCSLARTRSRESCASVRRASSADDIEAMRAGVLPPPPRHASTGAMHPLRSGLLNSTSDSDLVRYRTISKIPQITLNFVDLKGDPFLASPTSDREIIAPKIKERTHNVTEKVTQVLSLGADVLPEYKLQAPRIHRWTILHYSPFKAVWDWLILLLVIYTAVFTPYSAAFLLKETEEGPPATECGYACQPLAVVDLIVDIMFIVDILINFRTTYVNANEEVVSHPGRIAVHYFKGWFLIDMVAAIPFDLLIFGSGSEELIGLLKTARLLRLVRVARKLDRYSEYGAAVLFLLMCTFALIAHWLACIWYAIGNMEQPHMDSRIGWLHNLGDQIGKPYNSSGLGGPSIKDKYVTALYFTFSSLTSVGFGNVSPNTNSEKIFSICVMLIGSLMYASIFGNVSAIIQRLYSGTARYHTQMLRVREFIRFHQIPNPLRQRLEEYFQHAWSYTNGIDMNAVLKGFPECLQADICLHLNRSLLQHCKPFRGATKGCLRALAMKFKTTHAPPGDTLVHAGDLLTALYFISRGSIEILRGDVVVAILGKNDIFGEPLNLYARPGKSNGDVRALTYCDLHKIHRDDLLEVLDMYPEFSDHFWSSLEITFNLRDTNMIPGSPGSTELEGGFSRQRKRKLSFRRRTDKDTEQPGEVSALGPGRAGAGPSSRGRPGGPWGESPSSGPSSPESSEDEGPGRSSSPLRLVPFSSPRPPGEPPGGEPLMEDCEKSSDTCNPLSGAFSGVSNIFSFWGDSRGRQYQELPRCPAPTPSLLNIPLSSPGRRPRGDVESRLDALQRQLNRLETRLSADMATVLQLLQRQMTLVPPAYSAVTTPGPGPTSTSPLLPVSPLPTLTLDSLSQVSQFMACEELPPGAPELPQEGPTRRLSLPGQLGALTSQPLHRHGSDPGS

microsomal CLint at 1 μM [1] [µL/min/mg]	IC50 (MOLM-14 cells) [nM]	microsomal CLint at 1 μM ([2]; liver microsomes) [µL/min/mg]	Structure (SMILES)	IC50 (hERG) [nM]	median days of survival (OCI-AML3 tumors; 30 mg/kg PO daily for 28 days) [days]	median days of survival (OCI-AML3 tumors; 50 mg/kg PO daily for 28 days) [days]	median days of survival (OCI-AML3 tumors; 100 mg/kg PO daily for 28 days) [days]	microsomal CLint at 1 μM ([2]; mouse liver microsomes) [µL/min/mg]
14	21	< 7.5	CCN(C(=O)c1cc(F)ccc1Oc1nncnc1N1CCC2(C1)CN([C@H](CCCNCCOC)C(C)C)C2)C(C)C [Compound 11, (R)-N-ethyl-5-fluoro-N-isopropyl-2-((5-(2-(6-((2-methoxyethyl)amino)-2-methylhexan-3-yl)-2,6-diazaspiro[3.4]octan-6-yl)-1,2,4-triazin-6-yl)oxy)benzamide]	> 30200	–	–	–	–
–	–	–	CCN(C(=O)c1cc(F)ccc1Oc1nncnc1N1CCC2(C1)CN([C@H](CCCN(C)CCOC)C(C)C)C2)C(C)C [Compound A3, (R)-N-ethyl-5-fluoro-N-isopropyl-2-((5-(2-(6-((2-methoxyethyl) (methyl)amino)-2-methylhexan-3-yl)-2,6-diazaspiro[3.4]octan-6-yl)-1,2,4-triazin-6-yl)oxy) benzamide oxalate]	–	75.5	58.5	75	< 7.5
